From ChEMBL document CHEMBL3991601, “The target landscape of clinical kinase drugs” (Science, 2017)
Active and inactive are the calls of the source. For most assays here, no stated cut-off is given here; in the data, actives have a measured Kd and inactives only a lower limit.

Assays:
TGF-beta receptor type-2 = TGF-beta receptor type-2 (Homo sapiens, UniProt P37173)
[1] = target: Tyrosine-protein kinase Fer (Homo sapiens, UniProt P16591)
[2] = target: T1, Serine/threonine-protein kinase A-Raf (Homo sapiens, UniProt P10398)
T1 sequence (P10398 whole entry): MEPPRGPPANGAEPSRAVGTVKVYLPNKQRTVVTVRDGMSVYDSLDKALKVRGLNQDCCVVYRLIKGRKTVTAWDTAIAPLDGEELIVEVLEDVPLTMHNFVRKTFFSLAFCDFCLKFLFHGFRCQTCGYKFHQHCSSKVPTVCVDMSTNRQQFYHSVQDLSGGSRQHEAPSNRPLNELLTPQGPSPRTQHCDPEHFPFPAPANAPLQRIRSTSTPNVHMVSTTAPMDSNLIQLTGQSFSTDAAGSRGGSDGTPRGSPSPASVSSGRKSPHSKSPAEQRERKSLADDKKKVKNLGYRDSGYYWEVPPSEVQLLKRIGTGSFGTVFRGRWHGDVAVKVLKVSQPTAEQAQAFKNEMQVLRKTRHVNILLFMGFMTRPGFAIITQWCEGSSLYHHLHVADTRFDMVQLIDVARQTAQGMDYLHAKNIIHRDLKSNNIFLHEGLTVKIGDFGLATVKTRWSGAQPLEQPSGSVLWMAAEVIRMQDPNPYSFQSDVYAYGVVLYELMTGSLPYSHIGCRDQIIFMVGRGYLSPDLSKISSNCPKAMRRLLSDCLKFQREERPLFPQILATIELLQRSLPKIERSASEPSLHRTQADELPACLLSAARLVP

[3] = target: Mitogen-activated protein kinase 8 (Homo sapiens, UniProt P45983)
[4] = target: T2, Serine/threonine-protein kinase LATS1 (Homo sapiens, UniProt O95835)
T2 sequence (O95835 whole entry): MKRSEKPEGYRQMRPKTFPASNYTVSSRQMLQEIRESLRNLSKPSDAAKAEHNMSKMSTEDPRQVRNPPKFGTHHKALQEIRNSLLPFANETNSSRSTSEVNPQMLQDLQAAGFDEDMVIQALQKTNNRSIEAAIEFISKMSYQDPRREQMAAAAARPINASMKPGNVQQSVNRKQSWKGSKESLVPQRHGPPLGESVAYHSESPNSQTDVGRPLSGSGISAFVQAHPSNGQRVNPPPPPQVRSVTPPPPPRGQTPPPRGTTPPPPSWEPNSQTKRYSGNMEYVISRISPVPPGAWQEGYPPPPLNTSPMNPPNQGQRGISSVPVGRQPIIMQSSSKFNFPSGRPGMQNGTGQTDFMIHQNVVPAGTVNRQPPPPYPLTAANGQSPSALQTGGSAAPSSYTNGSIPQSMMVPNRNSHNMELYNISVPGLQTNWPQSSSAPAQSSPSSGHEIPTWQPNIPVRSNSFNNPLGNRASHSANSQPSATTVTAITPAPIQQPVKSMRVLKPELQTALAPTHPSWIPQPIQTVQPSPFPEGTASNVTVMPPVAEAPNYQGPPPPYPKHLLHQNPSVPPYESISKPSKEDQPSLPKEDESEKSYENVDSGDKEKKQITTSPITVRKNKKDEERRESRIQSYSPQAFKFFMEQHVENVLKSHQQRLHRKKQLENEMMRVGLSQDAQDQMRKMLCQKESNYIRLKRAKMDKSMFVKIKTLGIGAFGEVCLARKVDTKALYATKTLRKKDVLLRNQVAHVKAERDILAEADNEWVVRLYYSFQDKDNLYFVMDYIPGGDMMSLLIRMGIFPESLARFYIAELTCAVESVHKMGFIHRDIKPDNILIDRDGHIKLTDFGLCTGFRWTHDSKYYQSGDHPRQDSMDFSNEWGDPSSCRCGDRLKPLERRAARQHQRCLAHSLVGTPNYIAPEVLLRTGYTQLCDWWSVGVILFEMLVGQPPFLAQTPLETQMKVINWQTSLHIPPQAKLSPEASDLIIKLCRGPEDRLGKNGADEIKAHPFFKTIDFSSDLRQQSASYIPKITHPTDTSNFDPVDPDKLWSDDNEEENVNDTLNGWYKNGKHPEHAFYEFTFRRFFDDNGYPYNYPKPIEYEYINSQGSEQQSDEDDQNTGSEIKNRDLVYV

[5] = target: Calcium/calmodulin-dependent protein kinase type II subunit gamma (Homo sapiens, UniProt Q13555)
[6] = target: Receptor-interacting serine/threonine-protein kinase 2 (Homo sapiens, UniProt O43353)
GTP-binding protein 4 = GTP-binding protein 4 (Homo sapiens, UniProt Q9BZE4)
[7] = target: T3, Interleukin-1 receptor-associated kinase 3 (Homo sapiens, UniProt Q9Y616)
T3 sequence (Q9Y616 whole entry): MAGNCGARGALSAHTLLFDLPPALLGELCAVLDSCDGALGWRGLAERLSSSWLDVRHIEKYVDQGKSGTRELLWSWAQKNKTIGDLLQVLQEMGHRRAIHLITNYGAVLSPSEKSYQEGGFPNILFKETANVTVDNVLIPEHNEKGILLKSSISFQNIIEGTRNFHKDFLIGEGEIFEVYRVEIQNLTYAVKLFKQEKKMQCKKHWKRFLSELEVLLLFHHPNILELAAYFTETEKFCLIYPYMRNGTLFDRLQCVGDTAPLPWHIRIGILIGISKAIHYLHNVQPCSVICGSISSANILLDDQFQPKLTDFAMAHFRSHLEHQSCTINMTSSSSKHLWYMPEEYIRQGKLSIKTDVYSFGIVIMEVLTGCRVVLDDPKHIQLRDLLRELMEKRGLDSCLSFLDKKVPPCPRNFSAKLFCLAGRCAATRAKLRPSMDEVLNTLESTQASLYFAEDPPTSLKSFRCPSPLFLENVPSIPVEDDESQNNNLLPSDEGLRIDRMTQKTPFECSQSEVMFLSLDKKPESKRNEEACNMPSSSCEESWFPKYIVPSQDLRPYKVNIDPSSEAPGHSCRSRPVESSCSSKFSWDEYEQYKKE

Ephrin type-A receptor 4 = Ephrin type-A receptor 4 (Homo sapiens, UniProt P54764)
[8] = target: Serine/threonine-protein kinase 10 (Homo sapiens, UniProt O94804)
[9] = target: Serine/threonine-protein kinase pim-1 (Homo sapiens, UniProt P11309)
Chain of Serine/threonine-protein kinase pim-1 (P11309 whole entry): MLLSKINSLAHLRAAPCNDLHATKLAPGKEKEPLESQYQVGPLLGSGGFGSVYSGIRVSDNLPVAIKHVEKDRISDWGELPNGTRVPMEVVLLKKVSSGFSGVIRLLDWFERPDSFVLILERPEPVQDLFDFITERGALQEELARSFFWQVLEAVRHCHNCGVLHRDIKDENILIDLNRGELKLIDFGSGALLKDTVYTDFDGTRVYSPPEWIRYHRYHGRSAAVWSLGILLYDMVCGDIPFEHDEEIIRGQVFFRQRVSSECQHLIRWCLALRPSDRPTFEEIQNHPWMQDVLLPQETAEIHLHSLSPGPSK

Chain of Ephrin type-A receptor 4 (P54764 whole entry): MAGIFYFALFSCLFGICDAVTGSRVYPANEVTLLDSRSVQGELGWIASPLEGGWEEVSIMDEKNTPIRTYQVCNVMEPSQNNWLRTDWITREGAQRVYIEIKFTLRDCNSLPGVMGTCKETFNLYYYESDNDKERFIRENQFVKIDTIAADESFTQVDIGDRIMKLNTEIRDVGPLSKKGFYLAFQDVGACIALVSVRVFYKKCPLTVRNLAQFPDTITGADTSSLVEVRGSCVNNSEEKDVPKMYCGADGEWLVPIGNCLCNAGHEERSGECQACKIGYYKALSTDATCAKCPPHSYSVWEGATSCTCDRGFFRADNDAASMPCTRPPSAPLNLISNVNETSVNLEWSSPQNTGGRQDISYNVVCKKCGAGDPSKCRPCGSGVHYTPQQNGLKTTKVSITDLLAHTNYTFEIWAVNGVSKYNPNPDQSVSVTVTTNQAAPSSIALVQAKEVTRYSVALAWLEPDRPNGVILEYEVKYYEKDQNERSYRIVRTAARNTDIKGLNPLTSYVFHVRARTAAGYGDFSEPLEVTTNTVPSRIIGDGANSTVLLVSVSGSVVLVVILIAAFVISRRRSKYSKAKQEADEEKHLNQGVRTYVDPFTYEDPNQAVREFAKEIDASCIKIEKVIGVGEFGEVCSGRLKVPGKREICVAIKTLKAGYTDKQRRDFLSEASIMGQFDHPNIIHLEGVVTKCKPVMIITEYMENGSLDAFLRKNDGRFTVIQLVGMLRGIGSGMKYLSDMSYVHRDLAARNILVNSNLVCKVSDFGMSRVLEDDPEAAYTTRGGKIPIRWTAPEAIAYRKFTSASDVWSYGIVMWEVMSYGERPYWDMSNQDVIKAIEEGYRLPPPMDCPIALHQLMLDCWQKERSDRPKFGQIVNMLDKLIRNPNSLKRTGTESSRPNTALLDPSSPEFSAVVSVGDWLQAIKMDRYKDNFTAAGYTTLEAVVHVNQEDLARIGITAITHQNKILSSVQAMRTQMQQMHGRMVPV
Chain of Tyrosine-protein kinase Fer (P16591 whole entry): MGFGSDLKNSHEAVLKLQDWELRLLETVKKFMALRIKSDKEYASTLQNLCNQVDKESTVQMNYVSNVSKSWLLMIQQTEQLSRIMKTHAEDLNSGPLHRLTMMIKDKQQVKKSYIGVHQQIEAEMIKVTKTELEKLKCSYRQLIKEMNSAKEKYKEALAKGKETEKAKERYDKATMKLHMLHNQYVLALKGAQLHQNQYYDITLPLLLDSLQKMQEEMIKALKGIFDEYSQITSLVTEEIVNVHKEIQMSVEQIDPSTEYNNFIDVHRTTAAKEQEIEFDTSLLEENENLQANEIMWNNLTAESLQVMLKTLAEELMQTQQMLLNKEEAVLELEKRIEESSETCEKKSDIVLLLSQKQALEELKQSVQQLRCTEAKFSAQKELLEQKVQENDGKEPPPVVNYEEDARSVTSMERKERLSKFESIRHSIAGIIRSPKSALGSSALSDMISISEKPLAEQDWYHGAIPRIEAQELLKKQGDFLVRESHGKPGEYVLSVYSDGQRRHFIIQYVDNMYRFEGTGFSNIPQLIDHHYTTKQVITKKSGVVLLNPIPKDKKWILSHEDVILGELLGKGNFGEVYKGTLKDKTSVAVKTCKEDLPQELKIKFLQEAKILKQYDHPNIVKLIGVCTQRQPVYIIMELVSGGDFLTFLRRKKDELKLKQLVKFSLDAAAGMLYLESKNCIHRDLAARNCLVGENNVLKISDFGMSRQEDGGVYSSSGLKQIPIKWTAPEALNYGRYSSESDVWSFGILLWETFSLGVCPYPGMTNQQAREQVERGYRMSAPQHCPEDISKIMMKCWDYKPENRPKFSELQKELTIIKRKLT
Chain of TGF-beta receptor type-2 (P37173 whole entry): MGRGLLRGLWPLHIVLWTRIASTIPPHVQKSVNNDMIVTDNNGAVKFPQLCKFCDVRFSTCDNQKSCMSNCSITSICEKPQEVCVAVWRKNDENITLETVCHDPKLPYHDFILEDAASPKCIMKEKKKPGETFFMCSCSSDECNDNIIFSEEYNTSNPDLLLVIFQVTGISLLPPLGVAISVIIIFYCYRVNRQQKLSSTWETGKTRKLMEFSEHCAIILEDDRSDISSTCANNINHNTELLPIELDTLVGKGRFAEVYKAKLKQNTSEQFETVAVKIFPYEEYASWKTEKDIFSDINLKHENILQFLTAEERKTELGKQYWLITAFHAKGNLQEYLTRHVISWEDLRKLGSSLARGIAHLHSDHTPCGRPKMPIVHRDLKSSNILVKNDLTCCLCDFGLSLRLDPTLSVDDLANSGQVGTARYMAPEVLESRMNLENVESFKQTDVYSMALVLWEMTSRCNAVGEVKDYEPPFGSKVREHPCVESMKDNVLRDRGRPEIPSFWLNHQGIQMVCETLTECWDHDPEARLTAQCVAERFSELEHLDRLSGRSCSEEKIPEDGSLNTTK
Chain of Calcium/calmodulin-dependent protein kinase type II subunit gamma (Q13555 whole entry): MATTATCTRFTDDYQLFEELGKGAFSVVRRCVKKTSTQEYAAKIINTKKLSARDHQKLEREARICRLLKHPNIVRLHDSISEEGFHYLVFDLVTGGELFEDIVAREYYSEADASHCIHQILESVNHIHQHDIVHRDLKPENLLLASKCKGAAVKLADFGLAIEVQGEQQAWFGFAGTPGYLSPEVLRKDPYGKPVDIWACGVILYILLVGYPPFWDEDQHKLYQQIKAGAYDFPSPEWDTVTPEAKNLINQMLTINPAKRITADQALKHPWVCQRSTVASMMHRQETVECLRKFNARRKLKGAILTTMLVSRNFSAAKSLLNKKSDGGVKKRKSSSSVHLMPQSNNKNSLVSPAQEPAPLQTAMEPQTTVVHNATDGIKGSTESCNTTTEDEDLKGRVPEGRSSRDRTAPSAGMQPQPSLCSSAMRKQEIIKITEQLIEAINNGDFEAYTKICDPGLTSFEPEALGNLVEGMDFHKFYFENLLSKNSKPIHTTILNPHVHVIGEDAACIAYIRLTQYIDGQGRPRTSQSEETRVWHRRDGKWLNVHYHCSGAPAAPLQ
Chain of Mitogen-activated protein kinase 8 (P45983 whole entry): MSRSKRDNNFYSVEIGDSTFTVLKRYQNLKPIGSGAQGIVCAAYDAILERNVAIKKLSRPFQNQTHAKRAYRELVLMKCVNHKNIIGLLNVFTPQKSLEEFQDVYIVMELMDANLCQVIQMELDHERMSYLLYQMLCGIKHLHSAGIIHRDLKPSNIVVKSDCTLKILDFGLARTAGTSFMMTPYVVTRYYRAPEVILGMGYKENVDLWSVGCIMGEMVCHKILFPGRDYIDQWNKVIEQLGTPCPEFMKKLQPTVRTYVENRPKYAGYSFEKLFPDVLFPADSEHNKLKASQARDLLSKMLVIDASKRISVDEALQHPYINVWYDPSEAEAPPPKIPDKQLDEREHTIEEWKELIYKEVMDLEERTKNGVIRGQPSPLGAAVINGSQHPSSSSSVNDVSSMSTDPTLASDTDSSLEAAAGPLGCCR
Chain of Serine/threonine-protein kinase 10 (O94804 whole entry): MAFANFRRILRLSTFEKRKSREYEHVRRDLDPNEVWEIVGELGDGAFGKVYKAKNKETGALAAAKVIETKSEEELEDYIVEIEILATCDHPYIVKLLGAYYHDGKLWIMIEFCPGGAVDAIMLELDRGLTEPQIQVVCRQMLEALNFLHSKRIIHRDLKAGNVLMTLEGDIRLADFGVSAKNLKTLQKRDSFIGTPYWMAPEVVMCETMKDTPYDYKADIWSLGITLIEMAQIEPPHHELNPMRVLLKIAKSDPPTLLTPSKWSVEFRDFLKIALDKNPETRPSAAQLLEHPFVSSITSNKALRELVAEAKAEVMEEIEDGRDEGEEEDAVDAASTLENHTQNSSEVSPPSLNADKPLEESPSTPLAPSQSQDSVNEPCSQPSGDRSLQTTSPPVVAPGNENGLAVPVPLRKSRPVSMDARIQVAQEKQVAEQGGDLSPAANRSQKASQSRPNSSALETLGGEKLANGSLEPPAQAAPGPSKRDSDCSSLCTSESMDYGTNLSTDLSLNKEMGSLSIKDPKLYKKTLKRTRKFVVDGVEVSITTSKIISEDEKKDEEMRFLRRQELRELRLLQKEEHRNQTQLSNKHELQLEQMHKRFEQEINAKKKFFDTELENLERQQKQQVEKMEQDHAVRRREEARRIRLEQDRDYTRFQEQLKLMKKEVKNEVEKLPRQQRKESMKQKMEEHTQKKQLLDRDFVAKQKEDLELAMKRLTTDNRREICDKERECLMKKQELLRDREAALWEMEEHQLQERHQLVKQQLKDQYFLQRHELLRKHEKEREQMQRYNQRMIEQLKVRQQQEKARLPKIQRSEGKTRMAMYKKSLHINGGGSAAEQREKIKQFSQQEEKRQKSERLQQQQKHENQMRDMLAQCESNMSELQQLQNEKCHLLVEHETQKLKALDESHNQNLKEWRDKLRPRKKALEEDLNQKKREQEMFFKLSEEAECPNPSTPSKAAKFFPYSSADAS

Compound	Kd (TGF-beta receptor type-2)	Kd [1]	Kd [2]	Kd [3]	Kd [4]	Kd [5]	Kd [6]	Kd (GTP-binding protein 4)	Kd [7]	Kd (Ephrin type-A receptor 4)	Kd [8]	Kd [9]
Cn1ncc(Cl)c1-c1cc(C(=O)N[C@H](CN)Cc2cccc(F)c2)sc1Cl [AFURESERTIB]	> 30 µM (inactive)	> 30 µM (inactive)	> 30 µM (inactive)	> 30 µM (inactive)	> 30 µM (inactive)	> 30 µM (inactive)	> 30 µM (inactive)	> 30 µM (inactive)	> 30 µM (inactive)	> 30 µM (inactive)	> 30 µM (inactive)	> 30 µM (inactive)
Cc1cc(-c2cc(O)ccc2Cl)cc2nnc(Nc3ccc(OCCN4CCCC4)cc3)nc12	> 30 µM (inactive)	> 30 µM (inactive)	> 30 µM (inactive)	> 30 µM (inactive)	> 30 µM (inactive)	> 30 µM (inactive)	0.0009 µM (active)	> 30 µM (inactive)	> 30 µM (inactive)	0.002 µM (active)	> 30 µM (inactive)	> 30 µM (inactive)
O=C(c1ccc(F)c(F)c1Nc1ccc(I)cc1F)N1CC(O)([C@@H]2CCCCN2)C1 [COBIMETINIB]	> 30 µM (inactive)	> 30 µM (inactive)	> 30 µM (inactive)	> 30 µM (inactive)	> 30 µM (inactive)	> 30 µM (inactive)	> 30 µM (inactive)	> 30 µM (inactive)	> 30 µM (inactive)	> 30 µM (inactive)	> 30 µM (inactive)	> 30 µM (inactive)
CO[C@H]1C[C@@H]2CC[C@@H](C)[C@@](O)(O2)C(=O)C(=O)N2CCCC[C@H]2C(=O)O[C@H]([C@H](C)C[C@@H]2CC[C@@H](OCCO)[C@H](OC)C2)CC(=O)[C@H](C)/C=C(\C)[C@@H](O)[C@@H](OC)C(=O)[C@H](C)C[C@H](C)/C=C/C=C/C=C/1C [EVEROLIMUS]	> 30 µM (inactive)	> 30 µM (inactive)	> 30 µM (inactive)	> 30 µM (inactive)	> 30 µM (inactive)	> 30 µM (inactive)	> 30 µM (inactive)	> 30 µM (inactive)	> 30 µM (inactive)	> 30 µM (inactive)	> 30 µM (inactive)	> 30 µM (inactive)
Cn1cc(-c2ccc(F)c(C(F)(F)F)c2)nc1C1CCN(c2ncnc3[nH]ncc23)CC1 [LY-2584702]	> 30 µM (inactive)	> 30 µM (inactive)	> 30 µM (inactive)	> 30 µM (inactive)	> 30 µM (inactive)	> 30 µM (inactive)	> 30 µM (inactive)	> 30 µM (inactive)	> 30 µM (inactive)	> 30 µM (inactive)	> 30 µM (inactive)	> 30 µM (inactive)

The next lines start with the values.

Kd (TGF-beta receptor type-2)	Kd [1]	Kd [2]	Kd [3]	Kd [4]	Kd [5]	Kd [6]	Kd (GTP-binding protein 4)	Kd [7]	Kd (Ephrin type-A receptor 4)	Kd [8]	Kd [9]	Compound
> 30 µM (inactive)	> 30 µM (inactive)	> 30 µM (inactive)	> 30 µM (inactive)	> 30 µM (inactive)	> 30 µM (inactive)	0.751 µM (active)	> 30 µM (inactive)	> 30 µM (inactive)	7.4 µM (active)	> 30 µM (inactive)	> 30 µM (inactive)	CNC(=O)CN1CCC(Oc2cc3c(Nc4cccc(Cl)c4F)ncnc3cc2OC)CC1 [SAPITINIB]
> 30 µM (inactive)	> 30 µM (inactive)	> 30 µM (inactive)	> 30 µM (inactive)	> 30 µM (inactive)	> 30 µM (inactive)	> 30 µM (inactive)	> 30 µM (inactive)	> 30 µM (inactive)	> 30 µM (inactive)	> 30 µM (inactive)	> 30 µM (inactive)	CC[C@@H]1C(=O)N(C)c2cnc(Nc3ccc(C(=O)N[C@H]4CC[C@H](N5CCN(CC6CC6)CC5)CC4)cc3OC)nc2N1C(C)C [VOLASERTIB]
> 30 µM (inactive)	> 30 µM (inactive)	> 30 µM (inactive)	> 30 µM (inactive)	> 30 µM (inactive)	> 30 µM (inactive)	> 30 µM (inactive)	> 30 µM (inactive)	> 30 µM (inactive)	> 30 µM (inactive)	> 30 µM (inactive)	> 30 µM (inactive)	C[C@@H]1CN(Cc2ccc(F)cc2)[C@@H](C)CN1C(=O)c1cc2c(C(=O)C(=O)N(C)C)cn(C)c2cc1Cl [TALMAPIMOD]
